Papp A→B, efflux ratio and IC50 data for 6 compounds are collected here from patent US20250129096A1, “ANNULATED 2-AMINO-3-CYANO THIOPHENES AND DERIVATIVES FOR THE TREATMENT OF CANCER” (Boehringer Ingelheim Int'l GmbH Corp., priority 2021, published 2025).

The IC50 is the point on the concentration scale where inhibition reaches its midpoint.

Series [1] in a line: Caco-2 assay. Format: in vitro ADME. Particulars: human; for Papp A→B at 90 min, 10 μM: Caco-2, apical to basolateral, pH 7.4, read-out: Caco PappAB; for efflux ratio at 90 min, 10 μM: Caco-2, pH 7.4, efflux ratio PappBA/PappAB, read-out: Caco ER. The text has this:
The assay provides information on the potential of a compound to pass the cell membrane, on the extent of oral absorption as well as on whether the compound is actively transported by uptake and/or efflux transporters. Permeability measurements across polarized, confluent Caco-2 cell monolayers grown on permeable filter supports (Corning, catalog #3391) are used. […] The receiver and donor compartments contain 0.25% bovine serum albumine (BSA) in assay buffer. Passive diffusion and/or active transport of compounds across the monolayer is measured in both apical to basolateral (a-b) and basolateral to apical (b-a) direction. a-b permeability (PappAB) represents drug absorption from the intestine into the blood and b-a permeability (PappBA) drug secretion from the blood back into the intestine via both passive permeability as well as active transport mechanisms mediated by efflux and uptake transporters that are expressed on the Caco-2 cells. After a pre-incubation of 25-30 min at 37° C., at predefined time points (0, 30, 60 and 90 min), samples were taken from the receiver and donor compartment, respectively. Concentrations of test compounds in samples were measured by HPLC/MS/MS, samples from the donor compartment were diluted 1:50 (v:v) with assay buffer, samples from receiver compartment were measured without dilution.
Apparent permeabilities in a-b (PappAB) and b-a (PappBA) directions are calculated according to the formula:
[formula] • Vrec [mL]: buffer volume in receiver compartment • Cdon [μmol/mL]: concentration of test compound in donor compartment at t=0 • ΔCrec: difference between concentrations of test compound in receiver compartment at start and end of incubation time • Δt: Incubation time • Vrec·ΔCrec/Δt [μmol/min]: Amount of compound transferred to receiver compartment per time • A [cm^2]: filter surface
Caco-2 efflux ratios (ER) are calculated as the ratio of PappBA/PappAB.
Background: Caco-2 monolayers are a common model of the intestinal barrier.

In series [2] the test system is MKN1 cells (gastric cancer, wt amplified). Briefly: MKN1 CTG proliferation assay (120 h), assay 2. Format: cell-based. Particulars: Homo sapiens, MKN-1, CellTiter-Glo, 200 cells per well. Here is the method:
MKN1 cells (JCRB0252) are dispensed into white 384-well plates, flat and white bottom (Corning Costar, PNr.: 3570) at a density of 400 cells per well in 50 μL RPMI 1640 (PAN-Biotech, PNr.: P04-18047)+10% FCS (HyClone, PNr.: SH30084.03) (assay 1) or into black 384-well plates, flat and clear bottom (Greiner, PNr. 781091) at a density of 200 cells per well in 60 μl RPMI-1640 (Gibco #A10491)+10% FCS (HyClone, PNr.: SH30084.03)+ PenStrep (Gibco, PNr. 15140-122) (assay 2). […] Compounds (10 mM stock in DMSO) are added at logarithmic dose series using the HP Digital Dispenser D300 (Tecan) (assay 1+2) or the ECHO acoustic liquid handler system (Beckman Coulter) (assay 3), including DMSO controls and normalizing for added DMSO. Plates are incubated for 120 h, and cell viability is measured using CellTiter-Glo luminescent cell viability reagent (Promega product code G7570). Viability (stated as percent of control) is defined as relative luminescence units RLU of each well divided by the RLU of cells in DMSO controls. IC50 values are determined from viability measurements by non-linear regression using a four-parameter model.
A general note: ATP-based viability assays read luminescence as a measure of living cells.

The test system of series [3] is NCI-H358 cells (NSCLC, G12C). Briefly: NCI-H358 CTG proliferation assay (120 h), assay 1. Format: cell-based. Particulars: Homo sapiens, CellTiter-Glo, 96 well, 2000 cells per well. On the procedure: NCI-1H358 cells (ATCC No. CRL-5807) are dispensed into white bottom opaque 96 well plates (Perkin Elmer cat no. 5680) at a density of 2000 cells per well in 100 μL RPM 1-1640 ATCC-Formulation (Gibco #A10491)+10% FCS (fetal calf serum) (assay 1) or into black 384-well plates, flat and clear bottom (Greiner, PNr. 781091) at a density of 200 cells per well in 60 μl RPMI-1640 ATCC-Formulation (Gibco #A10491)+10% FCS (fetal calf serum) (assay 2). […] Compounds (10 mM stock in DMSO) are added at logarithmic dose series using the HP Digital Dispenser D300 (Tecan) (assay 1) or the ECHO acoustic liquid handler system (Beckman Coulter) (assay 2), normalizing for added DMSO and including DMSO controls. For the TO time point measurement, untreated cells are analyzed at the time of compound addition. Plates are incubated for 120 h, and cell viability is measured using CellTiter-Glo luminescent cell viability reagent (Promega product code G7570). Viability (stated as percent of control) is defined as relative luminescence units RLU of each well divided by the RLU of cells in DMSO controls. IC50 values are determined from viability measurements by non-linear regression using a four-parameter model.

In series [4] the target is T1, KRAS (G13D)::SOS1 (Homo sapiens, UniProt P01116, C118S/G13D).
T1 construct: KRAS (G13D) 1-169, N-terminal 6His-tag for purification, cleaved off; 6His-tag (N, cleaved yes); TEV cleavage site
T1 sequence (P01116 1-169 isoform P01116-2 G13D/C118S): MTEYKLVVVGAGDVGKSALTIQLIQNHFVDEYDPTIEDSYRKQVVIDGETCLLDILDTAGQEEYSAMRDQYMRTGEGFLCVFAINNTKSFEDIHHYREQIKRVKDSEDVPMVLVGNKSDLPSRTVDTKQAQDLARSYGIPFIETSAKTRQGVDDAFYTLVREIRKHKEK
Briefly: KRAS::SOS1 AlphaScreen binding assay, KRAS G13D. Here is the method: Low IC50 values in this assay setting are indicative of strong inhibition of protein-protein interaction between SOS1 and KRAS:
These assays measure the inhibitory effect of compounds on KRAS mutant protein-protein interactions using the Alpha Screen technology by Perkin Elmer.
For the chosen highest assay concentration of 100 μM, 150 nL of compound solution are transferred from a 10 mM DMSO compound stock solution. A series of eleven fivefold dilutions per compound are transferred to the assay plate, compound dilutions are tested in duplicates. DMSO are added as backfill to a total volume of 150 nL.
The assays run on a fully automated robotic system in a darkened room below 100 Lux. To 150 nl of compound dilution 10 μl of a mix including KRAS mutant protein, SOS1 (final assay concentrations see above) and GDP nucleotide (Sigma G7127; final assay concentration 10 μM) in assay buffer (1×PBS, 0.1% BSA, 0.05% Tween 20) are added into columns 1-24. […]
Plates are kept at room temperature in a darkened incubator. After an additional 60 minutes incubation time the signal is measured in a PerkinElmer Envision HTS Multilabel Reader using the AlphaScreen specs from PerkinElmer.
IC50 values are calculated and analyzed with Boehringer Ingelheim's MEGALAB IC50 application using a 4 parametric logistic model.

In the case of `C[C@H]1CNCCCN1c1nccc(-c2noc3c2CCC[C@@]32CCCc3sc(N)c(C#N)c32)n1` (single isomer, unassigned) [IIb-5], in series [1], the Papp A→B at 90 min, 10 μM is 13 ×10⁻⁶ cm/s and the efflux ratio at 90 min, 10 μM was 1.2.
On to `C[C@H](Oc1ccnc(-c2noc3c2CCC[C@@]32CCCc3sc(N)c(C#N)c32)n1)[C@@H]1CCCN1C` [IIb-3], for which, in series [1], the Papp A→B at 90 min, 10 μM was determined as 17 ×10⁻⁶ cm/s and the efflux ratio at 90 min, 10 μM turned out to be 2.
Take `C[C@H]1CNCCN1c1nccc(-c2noc3c2CCC[C@@]32CCCc3sc(N)c(C#N)c32)n1` [IIf-1]: in series [1], the Papp A→B at 90 min, 10 μM came to 12 ×10⁻⁶ cm/s. Further, the concentration for half-maximal inhibition (IC50) was found to be 2350 nM in series [2] and 831 nM in series [3].
With `C[C@H]1[C@@H]2CCCN2CCCN1c1nccc(-c2onc3c2CCC[C@@]32CCCc3sc(N)c(C#N)c32)n1` [Id-1], the half-maximal inhibitory concentration (IC50) in series [4] amounted to 89 nM.
Consider `C[C@H](Oc1nccc(-c2onc3c2CCC[C@@]32CCCc3sc(N)c(C#N)c32)n1)[C@@H]1C[C@@H](F)CN1C` [Ie-2], for which, in series [1], the Papp A→B at 90 min, 10 μM was determined as 33 ×10⁻⁶ cm/s and the efflux ratio at 90 min, 10 μM was determined as 0.6. In series [2], this compound yielded an IC50 of 3460 nM.
For `C[C@H]1CNCCCN1c1nccc(-c2onc3c2CCC[C@@]32CCCc3sc(N)c(C#N)c32)n1` [If-1], the IC50 in series [4] came out at 932 nM. Also, in series [1], the Papp A→B at 90 min, 10 μM stood at 9.4 ×10⁻⁶ cm/s and the efflux ratio at 90 min, 10 μM was determined as 3.2.
